# According to ChEMBL document CHEMBL3596152, “Synthesis of 1-O-acetylbritannilactone analogues from Inula britannica and in vitro evaluation of their anticancer potential” (Medchemcomm, 2014):
# The source made the active and inactive calls. No cut-off for these calls is given here.
# What was measured:
# HCT-116 = experiment: Cytotoxicity against human HCT116 cells assessed as reduction in cell viability incubated for 72 hrs by SRB assay; assay type: functional, cell-based; conditions: HCT-116, 72 h
# HeLa [1] = experiment: Cytotoxicity against human HeLa cells assessed as reduction in cell viability incubated for 72 hrs by SRB assay; assay type: functional, cell-based
# [2] = Cytotoxicity against human SGC7901 cells assessed as reduction in cell viability incubated for 72 hrs by SRB assay; assay type: functional, cell-based; conditions: SGC-7901, 72 h
# HeLa [3] = experiment: Induction of apoptosis in human HeLa cells assessed as increase in cleaved caspase-3 levels at 3 uM incubated for 48 hrs by Western blotting method; assay type: functional, cell-based
# HeLa [4] = experiment: Cytotoxicity against human HeLa cells assessed as reduction in cell viability at 1.57 to 12.5 uM incubated for 72 hrs by SRB assay; assay type: functional, cell-based
# HeLa [5] = experiment: Cytotoxicity against human HeLa cells assessed as reduction in cell viability at 1.57 to 12.5 uM in presence of 1 mM NAC incubated for 72 hrs by SRB assay; assay type: functional, cell-based
# [6] = Thiol reactivity in DMSO-d6 solution at 0.05 mmol in presence of beta-mercaptoethanol by 1H NMR Michael acceptor assay
# [7] = Thiol reactivity in DMSO-d6 solution assessed as formation of 1,6-O,O-diacetyl-13-(2-hydroxyethylthiol) britannilactone at 0.05 mmol in presence of beta-mercaptoethanol by 1H NMR Michael acceptor assay
# [8] = Thiol reactivity in DMSO-d6 solution assessed as formation of 1-O-acetyl-6-O-benzoyl-13-(2-hydroxyethylthiol) britannilactone at 0.05 mmol in presence of beta-mercaptoethanol by 1H NMR Michael acceptor assay
# HeLa [9] = experiment: Induction of apoptosis in human HeLa cells assessed as early apoptotic cells levels at 3 uM incubated for 72 hrs by annexin V-FITC and propidium iodide staining based flow cytometry (reference value: 1.4%); assay type: functional
# HeLa [10] = experiment: Induction of apoptosis in human HeLa cells assessed as late apoptotic cells levels at 3 uM incubated for 72 hrs by annexin V-FITC and propidium iodide staining based flow cytometry (reference value: 2.8%); assay type: functional
# HeLa [11] = experiment: Induction of apoptosis in human HeLa cells assessed as necrotic cells levels at 3 uM incubated for 72 hrs by annexin V-FITC and propidium iodide staining based flow cytometry (reference value: 0.2%); assay type: functional
# HeLa [12] = experiment: Induction of apoptosis in human HeLa cells assessed as increase in cleaved caspase-3 levels at 3 to 12 uM incubated for 48 hrs by Western blotting method; assay type: functional, cell-based
# HeLa [13] = experiment: Induction of cell cycle arrest in human HeLa cells assessed as accumulation at G0/G1 phase at 5 uM incubated for 24 hrs by propidium iodide staining based flow cytometry (reference value: 31.1%); assay type: functional
# HeLa [14] = experiment: Induction of cell cycle arrest in human HeLa cells assessed as accumulation at S pahse at 5 uM incubated for 24 hrs by propidium iodide staining based flow cytometry (reference value: 40.5%); assay type: functional
# HeLa [15] = experiment: Induction of cell cycle arrest in human HeLa cells assessed as accumulation at G2/M pahse at 5 uM incubated for 24 hrs by propidium iodide staining based flow cytometry (reference value: 28.4%); assay type: functional
# HeLa [16] = experiment: Induction of cell cycle arrest in human HeLa cells assessed as accumulation at G0/G1 phase at 10 uM incubated for 24 hrs by propidium iodide staining based flow cytometry (reference value: 31.1%); assay type: functional
# HeLa [17] = experiment: Induction of cell cycle arrest in human HeLa cells assessed as accumulation at S pahse at 10 uM incubated for 24 hrs by propidium iodide staining based flow cytometry (reference value: 40.5%); assay type: functional
# HeLa [18] = experiment: Induction of cell cycle arrest in human HeLa cells assessed as accumulation at G2/M pahse at 10 uM incubated for 24 hrs by propidium iodide staining based flow cytometry (reference value: 28.4%); assay type: functional
# HeLa [19] = experiment: Induction of cell cycle arrest in human HeLa cells assessed as accumulation at G0/G1 phase at 20 uM incubated for 24 hrs by propidium iodide staining based flow cytometry (reference value: 31.1%); assay type: functional
# HeLa [20] = experiment: Induction of cell cycle arrest in human HeLa cells assessed as accumulation at S pahse at 20 uM incubated for 24 hrs by propidium iodide staining based flow cytometry (reference value: 40.5%); assay type: functional
# HeLa [21] = experiment: Induction of cell cycle arrest in human HeLa cells assessed as accumulation at G2/M pahse at 20 uM incubated for 24 hrs by propidium iodide staining based flow cytometry (reference value: 28.4%); assay type: functional
# HeLa [22] = experiment: Induction of apoptosis in human HeLa cells assessed as necrotic cells levels at 6 uM incubated for 72 hrs by annexin V-FITC and propidium iodide staining based flow cytometry (reference value: 0.2%); assay type: functional
# HeLa [23] = experiment: Induction of apoptosis in human HeLa cells assessed as late apoptotic cells levels at 6 uM incubated for 72 hrs by annexin V-FITC and propidium iodide staining based flow cytometry (reference value: 2.8%); assay type: functional
# HeLa [24] = experiment: Induction of apoptosis in human HeLa cells assessed as early apoptotic cells levels at 6 uM incubated for 72 hrs by annexin V-FITC and propidium iodide staining based flow cytometry (reference value: 1.4%); assay type: functional
# HeLa [25] = experiment: Induction of apoptosis in human HeLa cells assessed as early apoptotic cells levels at 10 uM incubated for 72 hrs by annexin V-FITC and propidium iodide staining based flow cytometry (reference value: 1.4%); assay type: functional
# HeLa [26] = experiment: Induction of apoptosis in human HeLa cells assessed as late apoptotic cells levels at 10 uM incubated for 72 hrs by annexin V-FITC and propidium iodide staining based flow cytometry (reference value: 2.8%); assay type: functional
# HeLa [27] = experiment: Induction of apoptosis in human HeLa cells assessed as necrotic cells levels at 10 uM incubated for 72 hrs by annexin V-FITC and propidium iodide staining based flow cytometry (reference value: 0.2%); assay type: functional
smiles,measurement,setting,value
C=C1C(=O)O[C@@H]2CC(C)=C([C@@H](C)CCCOC(C)=O)[C@@H](OC(=O)CN3CCOCC3)[C@H]12,IC50,HCT-116,16.3 µM
same,IC50,HeLa [1],13.9 µM
same,IC50,[2],14.1 µM
C=C1C(=O)O[C@@H]2CC(C)=C([C@@H](C)CCCOC(C)=O)[C@@H](OC(=O)CN(CC)CC)[C@H]12,IC50,HCT-116,13.1 µM
same,IC50,HeLa [1],10.7 µM
same,IC50,[2],11.6 µM
C=C1C(=O)O[C@@H]2CC(C)=C([C@@H](C)CCCOC(C)=O)[C@@H](OC(=O)COc3ccc4c(CC)noc4c3)[C@H]12,IC50,HCT-116,18.3 µM
same,IC50,HeLa [1],21.7 µM
same,IC50,[2],21.2 µM
C=C1C(=O)O[C@@H]2CC(C)=C([C@@H](C)CCCOC(C)=O)[C@@H](OC(=O)COc3cccc(C(C)=O)c3)[C@H]12,IC50,HCT-116,45.5 µM
same,IC50,HeLa [1],38.6 µM
same,IC50,[2],46.1 µM
C=C1C(=O)O[C@@H]2CC(C)=C([C@@H](C)CCCOC(C)=O)[C@@H](O)[C@H]12,IC50,HCT-116,36.1 µM
same,IC50,HeLa [1],32.6 µM
same,IC50,[2],47.8 µM
C=C1C(=O)O[C@@H]2CC(C)=C([C@@H](C)CCCOC(C)=O)[C@@H](OC(=O)c3ccc(F)cc3)[C@H]12,IC50,HCT-116,14.9 µM
same,IC50,HeLa [1],12 µM
same,IC50,[2],13.6 µM
COc1cc([C@@H]2c3cc4c(cc3[C@@H](O[C@@H]3O[C@@H]5CO[C@@H](C)O[C@H]5[C@H](O)[C@H]3O)[C@H]3COC(=O)[C@H]23)OCO4)cc(OC)c1O [ETOPOSIDE],Activity,HeLa [3],Active
same,IC50,HCT-116,2.13 µM
same,IC50,HeLa [1],2.97 µM
same,IC50,[2],6.56 µM
C=C1C(=O)O[C@@H]2CC(C)=C([C@@H](C)CCCOC(C)=O)[C@@H](OC(=O)c3ccc([N+](=O)[O-])cc3)[C@H]12,IC50,HeLa [1],11.3 µM
C=C1C(=O)O[C@@H]2CC(C)=C([C@@H](C)CCCOC(C)=O)[C@@H](OC(=O)c3ccccc3)[C@H]12,Activity,HeLa [4],Dose-dependent effect
same,Activity,HeLa [5],inactive
same,Activity,[6],Active
same,Activity,[7],Active
same,Activity,[8],Active
same,Activity,HeLa [9],3.9%
same,Activity,HeLa [10],6.9%
same,Activity,HeLa [11],0.3%
same,Activity,HeLa [12],Dose-dependent effect
same,Activity,HeLa [13],29.5%
same,Activity,HeLa [14],41.3%
same,Activity,HeLa [15],29.2%
same,Activity,HeLa [16],28.7%
same,Activity,HeLa [17],18.1%
same,Activity,HeLa [18],53.2%
same,Activity,HeLa [19],20.7%
same,Activity,HeLa [20],15.6%
same,Activity,HeLa [21],63.7%
same,Activity,HeLa [22],3.5%
same,Activity,HeLa [23],30%
same,Activity,HeLa [24],4.5%
same,IC50,HCT-116,10.5 µM
same,IC50,HeLa [1],5.19 µM
same,IC50,[2],9.93 µM
C=C1C(=O)O[C@@H]2CC(C)=C([C@@H](C)CCCOC(C)=O)[C@@H](OC(=O)CN3CCCC3)[C@H]12,IC50,HCT-116,20.5 µM
same,IC50,HeLa [1],12.7 µM
same,IC50,[2],18.4 µM
C=C1C(=O)O[C@@H]2CC(C)=C([C@@H](C)CCCOC(C)=O)[C@@H](OC(=O)CCl)[C@H]12,IC50,HCT-116,18.8 µM
same,IC50,HeLa [1],28.5 µM
same,IC50,[2],26.5 µM
C=C1C(=O)O[C@@H]2CC(C)=C([C@@H](C)CCCOC(C)=O)[C@@H](OC(=O)COc3ccc(C(C)=O)cc3)[C@H]12,IC50,HCT-116,40.1 µM
same,IC50,HeLa [1],43.9 µM
same,IC50,[2],49.6 µM
C=C1C(=O)O[C@@H]2CC(C)=C([C@@H](C)CCCOC(C)=O)[C@@H](OC(=O)c3cccc(F)c3)[C@H]12,IC50,HCT-116,14.5 µM
same,IC50,HeLa [1],11.8 µM
same,IC50,[2],12.9 µM
CC(=O)OCCC[C@H](C)C1=C(C)C[C@H]2OC(=O)C(CSCCO)[C@H]2[C@@H]1OC(C)=O (stereo partly specified),IC50,HCT-116,> 100 µM
same,IC50,HeLa [1],> 100 µM
same,IC50,[2],> 100 µM
C=C1C(=O)O[C@@H]2CC(C)=C([C@@H](C)CCCOC(C)=O)[C@@H](OC(=O)c3ccc(OC)cc3)[C@H]12,IC50,HeLa [1],8.85 µM
C=C1C(=O)O[C@@H]2CC(C)=C([C@@H](C)CCCOC(C)=O)[C@@H](OC(=O)COc3ccc([N+](=O)[O-])cc3[N+](=O)[O-])[C@H]12,IC50,HCT-116,> 100 µM
same,IC50,HeLa [1],> 100 µM
same,IC50,[2],> 100 µM
C=C1C(=O)O[C@@H]2CC(C)=C([C@@H](C)CCCOC(C)=O)[C@@H](OC(=O)c3cc(OC)c(OC)c(OC)c3)[C@H]12,IC50,HeLa [1],6.54 µM
C=C1C(=O)O[C@@H]2CC(C)=C([C@@H](C)CCCOC(C)=O)[C@@H](OC(=O)CN3CCCCC3)[C@H]12,IC50,HCT-116,13.9 µM
same,IC50,HeLa [1],10.3 µM
same,IC50,[2],11.5 µM
O=c1[nH]cc(F)c(=O)[nH]1 [FLUOROURACIL],IC50,HCT-116,4.9 µM
same,IC50,HeLa [1],4.71 µM
same,IC50,[2],0.86 µM
C=C1C(=O)O[C@@H]2CC(C)=C([C@@H](C)CCCOC(C)=O)[C@@H](OC(=O)COc3ccc4c(C(F)(F)F)noc4c3)[C@H]12,IC50,HCT-116,21.5 µM
same,IC50,HeLa [1],19.2 µM
same,IC50,[2],19.7 µM
C=C1C(=O)O[C@@H]2CC(C)=C([C@@H](C)CCCOC(C)=O)[C@@H](OC(=O)c3ccccc3F)[C@H]12,IC50,HCT-116,21.1 µM
same,IC50,HeLa [1],17 µM
same,IC50,[2],19.3 µM
C=C1C(=O)O[C@@H]2CC(C)=C([C@@H](C)CCCOC(C)=O)[C@@H](OC(=O)c3ccc(C)cc3)[C@H]12,IC50,HeLa [1],5.46 µM
C=C1C(=O)O[C@@H]2CC(C)=C([C@@H](C)CCCOC(C)=O)[C@@H](OC(=O)COc3cccc4[nH]nnc34)[C@H]12,IC50,HCT-116,23.7 µM
same,IC50,HeLa [1],23 µM
same,IC50,[2],21.1 µM
C=C1C(=O)O[C@@H]2CC(C)=C([C@@H](C)CCCOC(C)=O)[C@@H](OC(=O)COc3ccc(C(=O)OCCC)cc3)[C@H]12,IC50,HCT-116,37.5 µM
same,IC50,HeLa [1],22.9 µM
same,IC50,[2],27.7 µM
C=C1C(=O)O[C@@H]2CC(C)=C([C@@H](C)CCCOC(C)=O)[C@@H](OC(=O)COc3cccc4cccnc34)[C@H]12,IC50,HCT-116,12.1 µM
same,IC50,HeLa [1],8.94 µM
same,IC50,[2],14.3 µM
C=C1C(=O)O[C@@H]2CC(C)=C([C@@H](C)CCCOC(C)=O)[C@@H](OC(C)=O)[C@H]12,Activity,[6],Active
same,Activity,[7],Active
same,Activity,[8],Active
same,Activity,HeLa [25],6.9%
same,Activity,HeLa [26],24.4%
same,Activity,HeLa [27],11%
same,IC50,HCT-116,10.1 µM
same,IC50,HeLa [1],11.2 µM
same,IC50,[2],15.9 µM
CC(=O)OCCC[C@H](C)C1=C(C)C[C@H]2OC(=O)C(CSCCO)[C@H]2[C@@H]1OC(=O)c1ccccc1 (stereo partly specified),IC50,HCT-116,> 100 µM
same,IC50,HeLa [1],> 100 µM
same,IC50,[2],> 100 µM
